Legend:
Assay in all cases: post-emergence herbicidal activity, greenhouse
Assay type in all cases: in vivo
Pennsylvania Smartweed = test system: Pennsylvania Smartweed
In short: (§1)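 The readout is plant injury compared with untreated pans, taken at two time points, about two and four weeks after spraying. Plants had grown two to three weeks in greenhouse topsoil pans before atomizer treatment.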

Barnyardgrass = test system: Barnyardgrass
In short: as §1

Yellow Nutsedge = conditions: Table II
In short: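 Candidate chemical is applied by atomizer at the indicated rates to emerged plants of 2–3 weeks, spray containing about 0.4 wt% emulsifier. Effects are judged as injury against unsprayed control pans, approximately two and four weeks post-application.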

Downy Brome = test system: Downy Brome
In short: as §1

Cocklebur = test system: Cocklebur
In short: as §1

Morningglory = test system: Morningglory
In short: as §1

Canada Thistle = conditions: Table II
In short: as §1

[1] = Table II, 2 WAT, 5.6 kg/h, formulated in anhydrous tetrahydrofuran
[2] = Table II, 2 WAT, 11.2 kg/h, formulated in anhydrous tetrahydrofuran
[3] = Table II, 4 WAT, 5.6 kg/h, formulated in anhydrous tetrahydrofuran
[4] = Table II, 4 WAT, 11.2 kg/h, formulated in anhydrous tetrahydrofuran
[5] = Table III, 2 WAT, 1.1 kg/h, formulated in anhydrous tetrahydrofuran
[6] = Table III, 2 WAT, .28 kg/h, formulated in anhydrous tetrahydrofuran
[7] = Table III, 4 WAT, 1.1 kg/h, formulated in anhydrous tetrahydrofuran
[8] = Table III, 4 WAT, .28 kg/h, formulated in anhydrous tetrahydrofuran
[9] = Table III, 2 WAT, 5.6 kg/h, formulated in anhydrous tetrahydrofuran
[10] = Table III, 4 WAT, 5.6 kg/h, formulated in anhydrous tetrahydrofuran
[11] = 2 WAT, 5.6 kg/h, formulated in anhydrous tetrahydrofuran
[12] = 2 WAT, 11.2 kg/h, formulated in anhydrous tetrahydrofuran
[13] = 4 WAT, 5.6 kg/h, formulated in anhydrous tetrahydrofuran
[14] = 4 WAT, 11.2 kg/h, formulated in anhydrous tetrahydrofuran

CCCCOC(=O)CNCP(=O)(O)O[Si](c1ccccc1)(c1ccccc1)C(C)(C)C [Ex. 6, Glycine, N--((([(1,1-Dimethylethyl)Diphenylsilyl]Oxy)Hydroxyphosphinyl)methyl)-Butyl Ester]
Plant Response Index (F) (Pennsylvania Smartweed; Table II, 2 WAT, 5.6 kg/h): 0 (0-24% inhibition)
Plant Response Index (F) (Pennsylvania Smartweed; [1]): 0 (0-24% inhibition)
Plant Response Index (F) (Pennsylvania Smartweed; Table II, 2 WAT, 11.2 kg/h): 2 (50-74% inhibition)
Plant Response Index (F) (Pennsylvania Smartweed; [2]): 0 (0-24% inhibition)
Plant Response Index (F) (Pennsylvania Smartweed; Table II, 4 WAT, 5.6 kg/h): 0 (0-24% inhibition)
Plant Response Index (F) (Pennsylvania Smartweed; [3]): 0 (0-24% inhibition)
Plant Response Index (F) (Pennsylvania Smartweed; Table II, 4 WAT, 11.2 kg/h): 2 (50-74% inhibition)
Plant Response Index (F) (Pennsylvania Smartweed; [4]): 0 (0-24% inhibition)
Plant Response Index (F) (Pennsylvania Smartweed; Table III, 2 WAT, 1.1 kg/h): 2 (50-74% inhibition)
Plant Response Index (F) (Pennsylvania Smartweed; [5]): 3 (75-99% inhibition)
Plant Response Index (F) (Pennsylvania Smartweed; Table III, 2 WAT, 5.6 kg/h): 3 (75-99% inhibition)
Plant Response Index (F) (Pennsylvania Smartweed; Table III, 2 WAT, .28 kg/h): 3 (75-99% inhibition)
Plant Response Index (F) (Pennsylvania Smartweed; [6]): 1 (25-49% inhibition)
Plant Response Index (F) (Pennsylvania Smartweed; Table III, 4 WAT, 1.1 kg/h): 3 (75-99% inhibition)
Plant Response Index (F) (Pennsylvania Smartweed; [7]): 4 (100% inhibition)
Plant Response Index (F) (Pennsylvania Smartweed; Table III, 4 WAT, 5.6 kg/h): 3 (75-99% inhibition)
Plant Response Index (F) (Pennsylvania Smartweed; [8]): 1 (25-49% inhibition)
Plant Response Index (K) (Barnyardgrass; Table II, 2 WAT, 5.6 kg/h): 1 (25-49% inhibition)
Plant Response Index (K) (Barnyardgrass; [1]): 1 (25-49% inhibition)
Plant Response Index (K) (Barnyardgrass; Table II, 2 WAT, 11.2 kg/h): 2 (50-74% inhibition)
Plant Response Index (K) (Barnyardgrass; [2]): 1 (25-49% inhibition)
Plant Response Index (K) (Barnyardgrass; Table II, 4 WAT, 5.6 kg/h): 2 (50-74% inhibition)
Plant Response Index (K) (Barnyardgrass; [3]): 2 (50-74% inhibition)
Plant Response Index (K) (Barnyardgrass; Table II, 4 WAT, 11.2 kg/h): 3 (75-99% inhibition)
Plant Response Index (K) (Barnyardgrass; [4]): 1 (25-49% inhibition)
Plant Response Index (K) (Barnyardgrass; Table III, 2 WAT, 1.1 kg/h): 2 (50-74% inhibition)
Plant Response Index (K) (Barnyardgrass; [5]): 2 (50-74% inhibition)
Plant Response Index (K) (Barnyardgrass; Table III, 2 WAT, 5.6 kg/h): 3 (75-99% inhibition)
Plant Response Index (K) (Barnyardgrass; [9]): 2 (50-74% inhibition)
Plant Response Index (K) (Barnyardgrass; Table III, 2 WAT, .28 kg/h): 2 (50-74% inhibition)
Plant Response Index (K) (Barnyardgrass; [6]): 0 (0-24% inhibition)
Plant Response Index (K) (Barnyardgrass; Table III, 4 WAT, 1.1 kg/h): 2 (50-74% inhibition)
Plant Response Index (K) (Barnyardgrass; [7]): 2 (50-74% inhibition)
Plant Response Index (K) (Barnyardgrass; Table III, 4 WAT, 5.6 kg/h): 3 (75-99% inhibition)
Plant Response Index (K) (Barnyardgrass; [10]): 2 (50-74% inhibition)
Plant Response Index (K) (Barnyardgrass; [8]): 0 (0-24% inhibition)
Plant Response Index (G) (Yellow Nutsedge; 2 WAT, 5.6 kg/h): 0 (0-24% inhibition)
Plant Response Index (G) (Yellow Nutsedge; [11]): 0 (0-24% inhibition)
Plant Response Index (G) (Yellow Nutsedge; 2 WAT, 11.2 kg/h): 1 (25-49% inhibition)
Plant Response Index (G) (Yellow Nutsedge; [12]): 0 (0-24% inhibition)
Plant Response Index (G) (Yellow Nutsedge; 4 WAT, 5.6 kg/h): 1 (25-49% inhibition)
Plant Response Index (G) (Yellow Nutsedge; [13]): 1 (25-49% inhibition)
Plant Response Index (G) (Yellow Nutsedge; 4 WAT, 11.2 kg/h): 2 (50-74% inhibition)
Plant Response Index (G) (Yellow Nutsedge; [14]): 1 (25-49% inhibition)
Plant Response Index (J) (Downy Brome; Table II, 2 WAT, 5.6 kg/h): 0 (0-24% inhibition)
Plant Response Index (J) (Downy Brome; [1]): 0 (0-24% inhibition)
Plant Response Index (J) (Downy Brome; Table II, 2 WAT, 11.2 kg/h): 0 (0-24% inhibition)
Plant Response Index (J) (Downy Brome; [2]): 0 (0-24% inhibition)
Plant Response Index (J) (Downy Brome; Table II, 4 WAT, 5.6 kg/h): 0 (0-24% inhibition)
Plant Response Index (J) (Downy Brome; [3]): 0 (0-24% inhibition)
Plant Response Index (J) (Downy Brome; Table II, 4 WAT, 11.2 kg/h): 1 (25-49% inhibition)
Plant Response Index (J) (Downy Brome; [4]): 0 (0-24% inhibition)
Plant Response Index (J) (Downy Brome; Table III, 2 WAT, 1.1 kg/h): 1 (25-49% inhibition)
Plant Response Index (J) (Downy Brome; [5]): 1 (25-49% inhibition)
Plant Response Index (J) (Downy Brome; Table III, 2 WAT, 5.6 kg/h): 1 (25-49% inhibition)
Plant Response Index (J) (Downy Brome; [9]): 1 (25-49% inhibition)
Plant Response Index (J) (Downy Brome; Table III, 2 WAT, .28 kg/h): 1 (25-49% inhibition)
Plant Response Index (J) (Downy Brome; [6]): 0 (0-24% inhibition)
Plant Response Index (J) (Downy Brome; Table III, 4 WAT, 1.1 kg/h): 1 (25-49% inhibition)
Plant Response Index (J) (Downy Brome; [7]): 1 (25-49% inhibition)
Plant Response Index (J) (Downy Brome; Table III, 4 WAT, 5.6 kg/h): 3 (75-99% inhibition)
Plant Response Index (J) (Downy Brome; [10]): 2 (50-74% inhibition)
Plant Response Index (J) (Downy Brome; [8]): 0 (0-24% inhibition)
Plant Response Index (B) (Cocklebur; Table II, 2 WAT, 5.6 kg/h): 1 (25-49% inhibition)
Plant Response Index (B) (Cocklebur; [1]): 1 (25-49% inhibition)
Plant Response Index (B) (Cocklebur; Table II, 2 WAT, 11.2 kg/h): 2 (50-74% inhibition)
Plant Response Index (B) (Cocklebur; [2]): 1 (25-49% inhibition)
Plant Response Index (B) (Cocklebur; Table II, 4 WAT, 5.6 kg/h): 1 (25-49% inhibition)
Plant Response Index (B) (Cocklebur; [3]): 1 (25-49% inhibition)
Plant Response Index (B) (Cocklebur; Table II, 4 WAT, 11.2 kg/h): 2 (50-74% inhibition)
Plant Response Index (B) (Cocklebur; [4]): 2 (50-74% inhibition)
Plant Response Index (B) (Cocklebur; Table III, 2 WAT, 1.1 kg/h): 2 (50-74% inhibition)
Plant Response Index (B) (Cocklebur; [5]): 1 (25-49% inhibition)
Plant Response Index (B) (Cocklebur; Table III, 2 WAT, 5.6 kg/h): 3 (75-99% inhibition)
Plant Response Index (B) (Cocklebur; [9]): 2 (50-74% inhibition)
Plant Response Index (B) (Cocklebur; Table III, 2 WAT, .28 kg/h): 0 (0-24% inhibition)
Plant Response Index (B) (Cocklebur; [6]): 1 (25-49% inhibition)
Plant Response Index (B) (Cocklebur; Table III, 4 WAT, 1.1 kg/h): 2 (50-74% inhibition)
Plant Response Index (B) (Cocklebur; [7]): 1 (25-49% inhibition)
Plant Response Index (B) (Cocklebur; Table III, 4 WAT, 5.6 kg/h): 3 (75-99% inhibition)
Plant Response Index (B) (Cocklebur; [10]): 2 (50-74% inhibition)
Plant Response Index (B) (Cocklebur; [8]): 1 (25-49% inhibition)
Plant Response Index (D) (Morningglory; Table II, 2 WAT, 5.6 kg/h): 2 (50-74% inhibition)
Plant Response Index (D) (Morningglory; [1]): 1 (25-49% inhibition)
Plant Response Index (D) (Morningglory; Table II, 2 WAT, 11.2 kg/h): 2 (50-74% inhibition)
Plant Response Index (D) (Morningglory; [2]): 2 (50-74% inhibition)
Plant Response Index (D) (Morningglory; Table II, 4 WAT, 5.6 kg/h): 2 (50-74% inhibition)
Plant Response Index (D) (Morningglory; [3]): 2 (50-74% inhibition)
Plant Response Index (D) (Morningglory; Table II, 4 WAT, 11.2 kg/h): 2 (50-74% inhibition)
Plant Response Index (D) (Morningglory; [4]): 2 (50-74% inhibition)
Plant Response Index (D) (Morningglory; Table III, 2 WAT, 1.1 kg/h): 2 (50-74% inhibition)
Plant Response Index (D) (Morningglory; [5]): 2 (50-74% inhibition)
Plant Response Index (D) (Morningglory; Table III, 2 WAT, 5.6 kg/h): 2 (50-74% inhibition)
Plant Response Index (D) (Morningglory; [9]): 2 (50-74% inhibition)
Plant Response Index (D) (Morningglory; Table III, 2 WAT, .28 kg/h): 1 (25-49% inhibition)
Plant Response Index (D) (Morningglory; [6]): 1 (25-49% inhibition)
Plant Response Index (D) (Morningglory; Table III, 4 WAT, 1.1 kg/h): 2 (50-74% inhibition)
Plant Response Index (D) (Morningglory; [7]): 2 (50-74% inhibition)
Plant Response Index (D) (Morningglory; Table III, 4 WAT, 5.6 kg/h): 3 (75-99% inhibition)
Plant Response Index (D) (Morningglory; [10]): 2 (50-74% inhibition)
Plant Response Index (D) (Morningglory; [8]): 1 (25-49% inhibition)
Plant Response Index (A) (Canada Thistle; 2 WAT, 5.6 kg/h): 0 (0-24% inhibition)
Plant Response Index (A) (Canada Thistle; [11]): 0 (0-24% inhibition)
Plant Response Index (A) (Canada Thistle; 2 WAT, 11.2 kg/h): 3 (75-99% inhibition)
Plant Response Index (A) (Canada Thistle; [12]): 0 (0-24% inhibition)
Plant Response Index (A) (Canada Thistle; 4 WAT, 5.6 kg/h): 1 (25-49% inhibition)
Plant Response Index (A) (Canada Thistle; [13]): 0 (0-24% inhibition)
Plant Response Index (A) (Canada Thistle; 4 WAT, 11.2 kg/h): 4 (100% inhibition)
Plant Response Index (A) (Canada Thistle; [14]): 1 (25-49% inhibition)
